Each compound was assayed against T1, LRRK2 (G2019S) (Homo sapiens, UniProt Q5S007, G2019S) (assay: LRRK2 inhibition, radiometric kinase assay with recombinant GST-LRRK2 (delta970) and peptide substrate). Conditions: GST-LRRK2 (delta970) G2019S 30 nM, ATP ~52 μM (Km), 30 min at 30° C.
T1 construct: Recombinant GST-LRRK2 (delta970), purified from baculovirus infected insect cells (SF9); GST (N); host or cells: baculovirus infected insect cells (SF9)
Assay type: biochemical
Procedure: Compounds were assessed for inhibition of LRRK2 inhibition using the following procedure.
Recombinant GST-LRRK2 (delta970), purified from baculovirus infected insect cells (SF9), at least 90% pure and either wild-type sequence or bearing the pathogenic G2019S mutation, was combined into a kinase buffer at 30 nM concentration. Kinase buffer consists of 50 mM Tris HCl pH 7.4, 1 mM EDTA, and 50 μM peptide substrate (amino acid sequence […]). Experimental compounds or control (no compound) were added at desired concentrations in DMSO and water, where final concentration of DMSO in kinase reactions was 0.1% for all drug concentrations. Activation buffer that consists of a final concentration in the reactions of 10 mM MgCl2 and ATP (˜92 μM for WT-LRRK2 reactions and ˜52 μM for G2019S-LRRK2, which represent respective Km ATP concentrations) were added to each reaction, in addition to 0.5 μCi of gamma-32-P-dATP per reaction. Reactions were incubated at 1400 RPM at 30° C. for 30 min. and then spotted in triplicate directly onto a slot-blot apparatus fitted with phospho-cellulose paper and allowed to dry. Each slot was then washed with 10 mM phosphoric acid buffer until beta-radiation could not be detected in eluted wash buffer, usually ˜1 mL per slot. Paper within each slot were excised and radiation measured by liquid scintillation.

T1 sequence (Q5S007 970-2527 G2019S limits assumed): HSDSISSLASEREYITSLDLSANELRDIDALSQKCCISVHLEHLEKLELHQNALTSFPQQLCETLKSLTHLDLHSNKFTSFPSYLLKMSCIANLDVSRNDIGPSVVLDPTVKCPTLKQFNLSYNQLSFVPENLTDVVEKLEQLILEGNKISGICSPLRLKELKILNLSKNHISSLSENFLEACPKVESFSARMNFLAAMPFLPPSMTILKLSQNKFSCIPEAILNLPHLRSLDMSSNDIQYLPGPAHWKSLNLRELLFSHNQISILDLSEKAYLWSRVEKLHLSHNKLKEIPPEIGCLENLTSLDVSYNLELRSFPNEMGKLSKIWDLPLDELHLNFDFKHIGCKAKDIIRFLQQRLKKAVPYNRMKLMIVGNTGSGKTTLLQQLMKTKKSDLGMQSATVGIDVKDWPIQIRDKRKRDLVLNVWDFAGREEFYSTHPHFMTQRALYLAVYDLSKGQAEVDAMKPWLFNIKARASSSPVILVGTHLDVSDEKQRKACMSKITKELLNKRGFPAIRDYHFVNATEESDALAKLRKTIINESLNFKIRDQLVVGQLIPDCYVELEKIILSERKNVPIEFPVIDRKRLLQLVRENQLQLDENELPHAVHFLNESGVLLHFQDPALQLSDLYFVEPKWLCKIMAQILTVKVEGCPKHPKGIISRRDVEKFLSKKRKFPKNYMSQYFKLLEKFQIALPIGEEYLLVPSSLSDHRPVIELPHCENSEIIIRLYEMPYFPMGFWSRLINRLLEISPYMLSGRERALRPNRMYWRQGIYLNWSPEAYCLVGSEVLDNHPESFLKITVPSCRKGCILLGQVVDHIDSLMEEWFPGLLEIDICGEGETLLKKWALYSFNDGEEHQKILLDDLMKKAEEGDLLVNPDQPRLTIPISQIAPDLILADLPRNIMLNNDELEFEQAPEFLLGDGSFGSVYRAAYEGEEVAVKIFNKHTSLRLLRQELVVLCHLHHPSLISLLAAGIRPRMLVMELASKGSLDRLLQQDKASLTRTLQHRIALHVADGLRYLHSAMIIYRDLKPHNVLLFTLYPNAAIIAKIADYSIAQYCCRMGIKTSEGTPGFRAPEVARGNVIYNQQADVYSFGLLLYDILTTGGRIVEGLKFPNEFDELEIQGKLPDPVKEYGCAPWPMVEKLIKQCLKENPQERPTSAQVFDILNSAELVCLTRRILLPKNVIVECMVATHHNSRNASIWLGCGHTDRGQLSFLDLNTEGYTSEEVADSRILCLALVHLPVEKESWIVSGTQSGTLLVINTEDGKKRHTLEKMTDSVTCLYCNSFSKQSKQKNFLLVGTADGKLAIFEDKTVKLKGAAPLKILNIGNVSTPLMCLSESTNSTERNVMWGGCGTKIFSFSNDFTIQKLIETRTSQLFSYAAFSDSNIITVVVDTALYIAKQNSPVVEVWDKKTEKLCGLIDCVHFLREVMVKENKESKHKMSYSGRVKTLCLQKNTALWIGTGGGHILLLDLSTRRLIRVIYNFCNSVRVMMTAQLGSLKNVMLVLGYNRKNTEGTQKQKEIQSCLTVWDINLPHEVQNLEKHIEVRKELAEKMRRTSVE

Row | SMILES | IC50 [nM]
1 | CCC(Sc1ccc2nnc(-c3cccs3)n2n1)C(=O)N1CCCC1 (centres unmarked) [Example 46, 1-(pyrrolidin-1-yl)-2-((3-(thiophen-2-yl)-[1,2,4]triazolo[4,3-b]pyridazin-6-yl)thio)butan-1-one] | < 100
2 | CCC(Sc1ccc2nnc(-c3cccs3)n2n1)C(=O)N1CCOCC1 (centres unmarked) [Example 47, 1-morpholino-2-((3-(thiophen-2-yl)-[1,2,4]triazolo[4,3-b]pyridazin-6-yl)thio)butan-1-one] | 100 to 1000
3 | CCC(Sc1ccc2nnc(-c3cccs3)n2n1)C(=O)NCc1cccs1 (centres unmarked) [Example 48, 2-((3-(thiophen-2-yl)-[1,2,4]triazolo[4,3-b]pyridazin-6-yl)thio)-N-(thiophen-2-ylmethyl)butanamide] | 100 to 1000
4 | Cc1ccc(-c2nnc3ccc(SCC(N)=O)nn23)s1 [Example 49, 2-((3-(5-methylthiophen-2-yl)-[1,2,4]triazolo[4,3-b]pyridazin-6-yl)thio)acetamide] | 100 to 1000
5 | CCC(Sc1ccc2nnc(-c3cccs3)n2n1)C(=O)N1CCCCCC1 (centres unmarked) [Example 50, 1-(azepan-1-yl)-2-((3-(thiophen-2-yl)-[1,2,4]triazolo[4,3-b]pyridazin-6-yl)thio)butan-1-one] | ≥ 5000
6 | CCC(Sc1ccc2nnc(-c3cccs3)n2n1)C(=O)N1CCCC(C)C1 (centres unmarked) [Example 51, 1-(3-methylpiperidin-1-yl)-2-((3-(thiophen-2-yl)-[1,2,4]triazolo[4,3-b]pyridazin-6-yl)thio)butan-1-one] | 100 to 1000
7 | CCC(Sc1ccc2nnc(-c3cccs3)n2n1)C(=O)NC1CCCCC1 (centres unmarked) [Example 52, N-cyclohexyl-2-((3-(thiophen-2-yl)-[1,2,4]triazolo[4,3-b]pyridazin-6-yl)thio)butanamide] | 100 to 1000
8 | CCC(Sc1ccc2nnc(-c3ccc(C(F)(F)F)cc3)n2n1)C(=O)O (centres unmarked) [Example 53, 2-((3-(4-(trifluoromethyl)phenyl)-[1,2,4]triazolo[4,3-b]pyridazin-6-yl)thio)butanoic acid] | ≥ 5000
9 | CCC(Sc1ccc2nnc(-c3ccc(F)c(F)c3)n2n1)C(=O)O (centres unmarked) [Example 54, 2-((3-(3,4-difluorophenyl)-[1,2,4]triazolo[4,3-b]pyridazin-6-yl)thio)butanoic acid] | 100 to 1000
10 | CCC(Sc1ccc2nnc(-c3ccccc3F)n2n1)C(=O)O (centres unmarked) [Example 55, 2-((3-(2-fluorophenyl)-[1,2,4]triazolo[4,3-b]pyridazin-6-yl)thio)butanoic acid] | 100 to 1000
11 | CCC(Sc1ccc2nnc(-c3cccc(F)c3)n2n1)C(=O)O (centres unmarked) [Example 56, 2-((3-(3-fluorophenyl)-[1,2,4]triazolo[4,3-b]pyridazin-6-yl)thio)butanoic acid] | 100 to 1000
12 | Cc1ccc(-c2nnc3ccc(SCC(=O)N4CCCCC4)nn23)s1 [Example 57, 2-((3-(5-methylthiophen-2-yl)-[1,2,4]triazolo[4,3-b]pyridazin-6-yl)thio)-1-(piperidin-1-yl)ethanone] | 1000 to 5000
13 | CCC(Sc1ccc2nnc(-c3cccs3)n2n1)C(=O)N1CCN(C)CC1 (centres unmarked) [Example 58, 1-(4-methylpiperazin-1-yl)-2-((3-(thiophen-2-yl)-[1,2,4]triazolo[4,3-b]pyridazin-6-yl)thio)butan-1-one] | ≥ 5000
14 | CCC(Sc1ccc2nnc(-c3ccc(C)s3)n2n1)C(=O)N1CCCCC1 (centres unmarked) [Example 59, 2-((3-(5-methylthiophen-2-yl)-[1,2,4]triazolo[4,3-b]pyridazin-6-yl)thio)-1-(piperidin-1-yl)butan-1-one] | ≥ 5000
15 | CCC(Sc1ccc2nnc(-c3nccs3)n2n1)C(=O)N1CCCCC1 (centres unmarked) [Example 60, 1-(piperidin-1-yl)-2-((3-(thiazol-2-yl)-[1,2,4]triazolo[4,3-b]pyridazin-6-yl)thio)butan-1-one] | 100 to 1000
16 | CCC(Sc1ccc2nnc(-c3ccc(Cl)s3)n2n1)C(=O)O (centres unmarked) [Example 61, 2-((3-(5-chlorothiophen-2-yl)-[1,2,4]triazolo[4,3-b]pyridazin-6-yl)thio)butanoic acid] | ≥ 5000
17 | CCC(Sc1ccc2nnc(-c3ccc(Cl)s3)n2n1)C(=O)N1CCCCC1 (centres unmarked) [Example 62, 2-((3-(5-chlorothiophen-2-yl)-[1,2,4]triazolo[4,3-b]pyridazin-6-yl)thio)-1-(piperidin-1-yl)butan-1-one] | 100 to 1000
18 | CCC(Sc1ccc2nnc(-c3ccc(Cl)s3)n2n1)C(=O)N1CCCC1 (centres unmarked) [Example 63, 2-((3-(5-chlorothiophen-2-yl)-[1,2,4]triazolo[4,3-b]pyridazin-6-yl)thio)-1-(pyrrolidin-1-yl)butan-1-one] | 100 to 1000
19 | CCC(Sc1ccc2nnc(-c3ccsc3)n2n1)C(=O)N1CCCCC1 (centres unmarked) [Example 64, 1-(piperidin-1-yl)-2-((3-(thiophen-3-yl)-[1,2,4]triazolo[4,3-b]pyridazin-6-yl)thio)butan-1-one] | 100 to 1000

Row | SMILES | IC50 [nM]
20 | CCOC(=O)C(CC)Sc1ccc2nnc(-c3ccc(OC)cc3)n2n1 (centres unmarked) [Example 65, ethyl 2-((3-(4-methoxyphenyl)-[1,2,4]triazolo[4,3-b]pyridazin-6-yl)thio)butanoate] | ≥ 5000
21 | CCC(Sc1ccc2nnc(-c3ccc(OC)cc3)n2n1)C(N)=O (centres unmarked) [Example 66, 2-((3-(4-methoxyphenyl)-[1,2,4]triazolo[4,3-b]pyridazin-6-yl)thio)butanamide] | 100 to 1000
22 | CCC(Sc1ccc2nnc(-c3ccc(OC)cc3)n2n1)C(=O)N1CCCCC1 (centres unmarked) [Example 67, 2-((3-(4-methoxyphenyl)-[1,2,4]triazolo[4,3-b]pyridazin-6-yl)thio)-1-(piperidin-1-yl)butan-1-one] | 100 to 1000
23 | CCOC(=O)C(CC)Sc1ccc2nnc(-c3ccccc3OC)n2n1 (centres unmarked) [Example 68, ethyl 2-((3-(2-methoxyphenyl)-[1,2,4]triazolo[4,3-b]pyridazin-6-yl)thio)butanoate] | ≥ 5000
24 | CCC(Sc1ccc2nnc(-c3ccccc3OC)n2n1)C(N)=O (centres unmarked) [Example 69, 2-((3-(2-methoxyphenyl)-[1,2,4]triazolo[4,3-b]pyridazin-6-yl)thio)butanamide] | ≥ 5000
25 | CCC(Sc1ccc2nnc(-c3ccccc3OC)n2n1)C(=O)N1CCCCC1 (centres unmarked) [Example 70, 2-((3-(2-methoxyphenyl)-[1,2,4]triazolo[4,3-b]pyridazin-6-yl)thio)-1-(piperidin-1-yl)butan-1-one] | ≥ 5000
26 | CCOC(=O)C(CC)Sc1ccc2nnc(-c3cccc(OC)c3)n2n1 (centres unmarked) [Example 71, ethyl 2-((3-(3-methoxyphenyl)-[1,2,4]triazolo[4,3-b]pyridazin-6-yl)thio)butanoate] | 1000 to 5000
27 | CCC(Sc1ccc2nnc(-c3cccc(OC)c3)n2n1)C(N)=O (centres unmarked) [Example 72, 2-((3-(3-methoxyphenyl)-[1,2,4]triazolo[4,3-b]pyridazin-6-yl)thio)butanamide] | 100 to 1000
28 | CCC(Sc1ccc2nnc(-c3cccc(OC)c3)n2n1)C(=O)N1CCCCC1 (centres unmarked) [Example 73, 2-((3-(3-methoxyphenyl)-[1,2,4]triazolo[4,3-b]pyridazin-6-yl)thio)-1-(piperidin-1-yl)butan-1-one] | 100 to 1000
29 | CCOC(=O)C(CC)Sc1ccc2nnc(-c3ccccc3F)n2n1 (centres unmarked) [Example 74, ethyl 2-((3-(2-fluorophenyl)-[1,2,4]triazolo[4,3-b]pyridazin-6-yl)thio)butanoate] | 1000 to 5000
30 | CCOC(=O)C(CC)Sc1ccc2nnc(-c3cccc(F)c3)n2n1 (centres unmarked) [Example 75, ethyl 2-((3-(3-fluorophenyl)-[1,2,4]triazolo[4,3-b]pyridazin-6-yl)thio)butanoate] | 1000 to 5000
31 | CCOC(=O)C(CC)Sc1ccc2nnc(-c3ccc(F)c(F)c3)n2n1 (centres unmarked) [Example 76, ethyl 2-((3-(3,4-difluorophenyl)-[1,2,4]triazolo[4,3-b]pyridazin-6-yl)thio)butanoate] | 1000 to 5000
32 | CCOC(=O)C(CC)Sc1ccc2nnc(-c3ccc(C(F)(F)F)cc3)n2n1 (centres unmarked) [Example 77, ethyl 2-((3-(4-(trifluoromethyl)phenyl)-[1,2,4]triazolo[4,3-b]pyridazin-6-yl)thio)butanoate] | ≥ 5000
33 | CCC(Sc1ccc2nnc(-c3ccc(C(F)(F)F)cc3)n2n1)C(N)=O (centres unmarked) [Example 78, 2-((3-(4-(trifluoromethyl)phenyl)-[1,2,4]triazolo[4,3-b]pyridazin-6-yl)thio)butanamide] | ≥ 5000
34 | CCC(Sc1ccc2nnc(-c3ccc(F)c(F)c3)n2n1)C(N)=O (centres unmarked) [Example 79, 2-((3-(3,4-difluorophenyl)-[1,2,4]triazolo[4,3-b]pyridazin-6-yl)thio)butanamide] | 1000 to 5000
35 | CCC(Sc1ccc2nnc(-c3ccccc3F)n2n1)C(N)=O (centres unmarked) [Example 80, 2-((3-(2-fluorophenyl)-[1,2,4]triazolo[4,3-b]pyridazin-6-yl)thio)butanamide] | 100 to 1000
36 | CCC(Sc1ccc2nnc(-c3cccc(F)c3)n2n1)C(N)=O (centres unmarked) [Example 81, 2-((3-(3-fluorophenyl)-[1,2,4]triazolo[4,3-b]pyridazin-6-yl)thio)butanamide] | 100 to 1000
37 | CCOC(=O)C(CC)Oc1ccc2nnc(-c3cccs3)n2n1 (centres unmarked) [Example 82, ethyl 2-((3-(thiophen-2-yl)-[1,2,4]triazolo[4,3-b]pyridazin-6-yl)oxy)butanoate] | ≥ 5000
38 | CCC(Oc1ccc2nnc(-c3cccs3)n2n1)C(=O)O (centres unmarked) [Example 83, 2-((3-(thiophen-2-yl)-[1,2,4]triazolo[4,3-b]pyridazin-6-yl)oxy)butanoic acid] | ≥ 5000

Reference: patent publication US9187484B2 (Southern Research Institute, priority 2012, dated 2015)
